Assay [1] addresses T1, purified human topoisomerase I (Homo sapiens, UniProt P11387).
T1 construct: purchased Topogen
T1 sequence (P11387 1-765): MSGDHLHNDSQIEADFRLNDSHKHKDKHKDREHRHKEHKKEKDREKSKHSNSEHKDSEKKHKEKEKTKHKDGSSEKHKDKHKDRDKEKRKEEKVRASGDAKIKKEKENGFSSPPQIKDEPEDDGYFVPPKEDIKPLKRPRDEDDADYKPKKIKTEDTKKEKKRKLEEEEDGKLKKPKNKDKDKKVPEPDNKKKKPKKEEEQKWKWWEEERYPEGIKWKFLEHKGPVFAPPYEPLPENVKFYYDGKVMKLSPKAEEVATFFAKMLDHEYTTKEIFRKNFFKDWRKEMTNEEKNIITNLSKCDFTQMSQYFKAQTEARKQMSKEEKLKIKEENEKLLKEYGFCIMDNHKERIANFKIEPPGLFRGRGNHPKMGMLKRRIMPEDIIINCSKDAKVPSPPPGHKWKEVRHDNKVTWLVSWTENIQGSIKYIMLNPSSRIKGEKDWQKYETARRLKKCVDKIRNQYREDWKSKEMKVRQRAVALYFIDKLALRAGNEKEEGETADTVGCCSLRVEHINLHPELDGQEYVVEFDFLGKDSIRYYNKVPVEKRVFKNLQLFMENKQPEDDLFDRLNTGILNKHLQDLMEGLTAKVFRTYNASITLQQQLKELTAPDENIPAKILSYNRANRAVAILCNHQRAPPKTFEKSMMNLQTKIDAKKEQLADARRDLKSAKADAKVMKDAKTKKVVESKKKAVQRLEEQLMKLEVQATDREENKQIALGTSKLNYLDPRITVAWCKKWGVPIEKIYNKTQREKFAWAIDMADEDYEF
In words: Topoisomerase I activity (in vitro): compound-induced, topoisomerase I-mediated single strand breaks in PM2 DNA. As to conditions: purified human topoisomerase I (Topogen), 30 minutes at 37° C., read-out: EC50 (median effective concentration for inducing topoisomerase I-mediated single strand breaks in DNA). It is filed as biochemical. As to the method: Topoisomerase I activity was measured as described below. The procedure for assaying compound-induced, topoisomerase I-mediated single strand breaks in DNA was essentially that described by Hsiang, et al., (J. Biol. Chem. 1985, 260,14873-14878). Samples dissolved in 100% DMSO as either 10 μM or 10 mg/ml solutions, unless otherwise stated, were diluted in Tris-EDTA buffer. Marine bacteriophage PM2 DNA (Boehringer Mannheim) was also diluted in Tris-EDTA buffer to a concentration of 0.02 μg/μl. Different dilutions of compound being evaluated were mixed with diluted DNA and this mixture was added to 1000 unit (one unit of enzyme activity is defined as the amount capable of relaxing 100 ng of supercoiled DNA in approximately 30 minutes at 37° C.) aliquots of purified human topoisomerase I (Topogen) in 2×reaction buffer to start the reaction. The compound—DNA—enzyme mixture was incubated for 30 minutes at 37° C. before stopping the reaction with warm stop buffer containing sodium dodecyl sulfate and proteinase K (Sigma). These mixtures were allowed to incubate at 37° C. for another 10 minutes, at which time the mixtures were removed from the waterbath and extracted with a 24:1 mixture of chloroform/isoamyl alcohol. Following centrifugation, aliquots of the aqueous phases were placed in wells of a 0.9% agarose (SeaKem) gel in Tris-borate buffer containing 0.5 μg/ml of ethidium bromide and subjected to electrophoresis for 15 hours to separate the different topological isomers and nicked and broken DNAs. After destaining the gel in water, the ethidium bromide stained DNA reaction products were visualized by exposing the gel to UV irradiation. Negatives of photographs of the irradiated gels were scanned with a densitometer and areas under the peaks were calculated in order to obtain percent single strand DNA break formation for each sample. A median effective concentration (EC50) was obtained for each compound by interpolation between points of the resulting dose-effect curve which defines the potency of the compound for its effect in inducing topoisomerase I-mediated single strand breaks in DNA. The topoisomerase I activity for selected compounds of the present invention is shown below in Table I.

Assay [2] concerns murine P388 cell line. The assay is described as follows: Cell-based cytotoxicity (XTT proliferation inhibition) against murine P388 cell line. Conditions: Mus musculus, P388 cells, 72 h incubation, absorbance at 450 nm, read-out: IC50 (drug concentration required to inhibit cell proliferation to 50% of untreated control cells). As to the method: The proliferation inhibition activity against murine P388 cell line was measured as follows. Evaluation of a soluble tetrazolium/formazan assay for cell growth and drug sensitivity in culture, using human and other tumor cell lines, was done according to the procedure described in Cancer Res. 1988, 48, 4827-4833. Cells were plated at 4000 cells/well in 96 well microtiter plates and 24 h later drugs were added and serially diluted. The cells were incubated at 37° C. for 72 h, at which time a tetrazolium dye, XTT, containing phenazine methosulfate was added. A dehydrogenase enzyme in live cells reduced the XTT to a form that absorbs light at 450 nm, which could be quantitated spectrophotometrically. The greater the absorbance the greater the number of live cells. The results are expressed as an IC50, which is the drug concentration required to inhibit cell proliferation (i.e., absorbance at 450 nm) to 50% of that of untreated control cells.
A general note: Tetrazolium assays rely on reduction of a dye to a coloured formazan, in cell work by metabolically active cells.

For the molecule `O=C1NC(=O)c2c1c1c3cc(F)c(F)cc3[nH]c1c1c2c2cc(F)c(F)cc2n1[C@@H]1OC(CO)(CO)C[C@H](O)[C@H]1O` [Example 1, 2,3,9, 10-Tetrafluoro-12-[5-C-(hydroxymethyl)-4-deoxy-β-D-glucopyranosyl]-indolo[2,3-a]pyrrolo[3,4-c]carbazole-5,7-dione], the EC50 in assay [1] turned out to be 40 nM. The IC50 in assay [2] worked out at 35 nM. As to `CO[C@@]1(C)C[C@H](O)[C@@H](O)[C@H](n2c3cc(F)c(F)cc3c3c4c(c5c6cc(F)c(F)cc6[nH]c5c32)C(=O)NC4=O)O1` [Example 6, 2 , 3,9, 10-Tetrafluoro-12-(4,6-dideoxy-5-methoxy-β-D-glucopyranosyl) -6,7, 12, 13-tetrahydro(5H)indolo[2,3-a]pyrrolo[3,4-c]carbazole-5,7-dione], in assay [1], the EC50 amounted to 70 nM. Also, the IC50 in assay [2] came out at 50 nM. For `CO[C@]1(CO)O[C@@H](n2c3cc(F)c(F)cc3c3c4c(c5c6cc(F)c(F)cc6[nH]c5c32)C(=O)NC4=O)[C@H](O)[C@@H](O)[C@@H]1O` [Example 7, 2,3,9, 10-Tetrafluoro-12-(5-methoxy-β-D-glucopyranosyl)-6,7, 12, 13-tetrahydro(5H)indolo[2,3-a]pyrrolo[3,4-c]carbazole-5,7-dione] the same measures were 270 nM and 250 nM.

As for `CO[C@@]1(CO)C[C@H](O)[C@@H](O)[C@H](n2c3cc(F)c(F)cc3c3c4c(c5c6cc(F)c(F)cc6[nH]c5c32)C(=O)NC4=O)O1` [Example 8, 2,3,9, 10-Tetrafluoro-12-(4-deoxy-5-methoxy-β-D-glucopyranosyl) -6,7, 12, 13-tetrahydro(5H)indolo[2,3-a]pyrrolo[3,4-c]carbazole-5,7-dione], the EC50 in assay [1] was 50 nM. The IC50 in assay [2] amounted to 35 nM. With `CO[C@@]1(C)C[C@H](O)[C@@H](O)[C@H](n2c3ccc(F)cc3c3c4c(c5c6cc(F)ccc6[nH]c5c32)C(=O)NC4=O)O1` [Example 9, 3,9-Difluoro-12-(4,6-dideoxy-5-methoxy-β-D-glucopyranosyl)-6,7, 12, 13-tetrahydro(5H)indolo[2,3-a]pyrrolo[3,4-c]carbazole-5,7-dione], the IC50 in assay [2] came out at 7 nM. The same measure, in the same setting: the value for `CCOC1(C)CC(O)C(O)C(n2c3ccc(F)cc3c3c4c(c5c6cc(F)ccc6[nH]c5c32)C(=O)NC4=O)O1` [Example 10, 3,9-Difluoro-12-(4,6-dideoxy-5-ethoxy-6-D-glucopyranosyl)-6,7, 12, 13-tetrahydro(5H)indolo[2,3-a]pyrrolo[3,4-c]carbazole-5,7-dione] was 55 nM. Same read-out and setting: in the case of `CC(C)OC1(C)CC(O)C(O)C(n2c3ccc(F)cc3c3c4c(c5c6cc(F)ccc6[nH]c5c32)C(=O)NC4=O)O1` [Example 11, 3,9-Difluoro-12-(4,6-dideoxy-5-isopropoxy-δ-D-glucopyranosyl)-6,7, 12, 13-tetrahydro(5H)indolo[2,3-a]pyrrolo[3,4-c]carbazole-5,7-dione] it was 200 nM. Turning to `COC1(C)CC(O)C(O)C(n2c3cc(F)c(F)cc3c3c4c(c5c6cc(F)c(F)cc6sc5c32)C(=O)NC4=O)O1` [Example 12, 2,3,9, 10-Tetrafluoro-12-(4,6-dideoxy-5-methoxy-δ-D-glucopyranosyl)-6,7, 12, 13-tetrahydro(5H)benzo[b]thieno[2,3-a]pyrrolo[3,4-c]carbazole-5,7-dione], in assay [2], the IC50 was 69 nM.

Values taken from US6653290B2, “Tumor proliferation inhibitors” (Bristol-Myers Squibb Company, priority 2000, dated 2003).
